This note sets out measurements from ChEMBL document CHEMBL1148426, “Essential structural features of acetogenins: role of hydroxy groups adjacent to the bis-THF rings” (Bioorg Med Chem Lett, 2004).

Each structure is given as a SMILES string. pIC50: −log10 of the molar value.

As a reminder, the inhibition is the change of the read-out against control, counted positive when it falls. A lower inhibition goes with little suppression. As usually defined, the pIC50 is the IC50 on a negative log10 scale, so that one unit is a factor of ten.

The target in assay [1] is Mitochondrial complex I; NADH oxidoreductase (Bos taurus) (UniProt P25708+P52505). Briefly: Maximum inhibition (2 uM) halve the control NADH oxidase activity in bovine heart submitochondrial particles (SMP). The format is protein-complex assay.
The target in assay [2] is Mitochondrial complex I; NADH oxidoreductase (Bos taurus, UniProt P25708+P52505). Put plainly: Inhibitory concentration needed to halve the control NADH oxidase activity in bovine heart submitochondrial particles (SMP). The format is protein-complex assay.
Mitochondrial complex I; NADH oxidoreductase, sequence (P25708 21-464 limits assumed, other chains not shown): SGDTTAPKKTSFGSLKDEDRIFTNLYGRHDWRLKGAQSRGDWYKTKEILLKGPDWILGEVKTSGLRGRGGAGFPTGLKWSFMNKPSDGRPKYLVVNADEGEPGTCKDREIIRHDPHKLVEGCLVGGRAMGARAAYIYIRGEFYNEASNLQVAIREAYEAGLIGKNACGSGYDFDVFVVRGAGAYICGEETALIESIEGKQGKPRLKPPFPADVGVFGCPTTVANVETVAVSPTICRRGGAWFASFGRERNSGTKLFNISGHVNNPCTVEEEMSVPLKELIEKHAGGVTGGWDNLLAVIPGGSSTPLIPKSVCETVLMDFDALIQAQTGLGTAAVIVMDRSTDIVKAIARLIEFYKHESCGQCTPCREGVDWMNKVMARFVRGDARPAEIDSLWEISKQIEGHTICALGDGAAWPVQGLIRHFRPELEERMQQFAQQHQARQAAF

In turn, `CCCCCCCCCCC[C@H]1CC[C@H]([C@H]2CC[C@H](CCCCCCCCCCCCCC3=C[C@H](C)OC3=O)O2)O1` returned an inhibition in assay [1] of 85%. The molecule also showed a pIC50 in assay [2] of 7.07.

For `CCCCCCCCCC[C@@H](O)[C@H]1CC[C@H]([C@H]2CC[C@H](CCCCCCCCCCCCCC3=C[C@H](C)OC3=O)O2)O1`, in assay [2], the pIC50 is 8.57. On the same count and under the same terms, in the case of `CCCCCCCCCCC[C@H]1CC[C@H]([C@H]2CC[C@H]([C@H](O)CCCCCCCCCCCCC3=C[C@H](C)OC3=O)O2)O1` it was 8.51; in that of `CCCCCCCCCC[C@@H](O)[C@H]1CC[C@H]([C@H]2CC[C@H]([C@H](O)CCCCCCCCCCCCC3=C[C@H](C)OC3=O)O2)O1` [ISODESAACETYLUVARICIN], 9.12.
